Laboratory results taken from US10806785B2, “Immunomodulator compounds and methods of use” (Incyte Corporation, priority 2016, dated 2020).

Target: PD-1/PD-L1 (Homo sapiens (Human), UniProt Q9NZQ7)
Assay: PD-1/PD-L1 binding assay (HTRF)
Experimental: The assays were conducted in a standard black 384-well polystyrene plate with a final volume of 20 μL. Inhibitors were first serially diluted in DMSO and then added to the plate wells before the addition of other reaction components. The final concentration of DMSO in the assay was 1%. The assays were carried out at 25° C. in the PBS buffer (pH 7.4) with 0.05% Tween-20 and 0.1% BSA. Recombinant human PD-L1 protein (19-238) with a His-tag at the C-terminus was purchased from AcroBiosystems (PD1-H5229). Recombinant human PD-1 protein (25-167) with Fc tag at the C-terminus was also purchased from AcroBiosystems (PD1-H5257). PD-L1 and PD-1 proteins were diluted in the assay buffer and 10 μL was added to the plate well. Plates were centrifuged and proteins were preincubated with inhibitors for 40 minutes. The incubation was followed by the addition of 10 μL of HTRF detection buffer supplemented with Europium cryptate-labeled anti-human IgG (PerkinElmer-AD0212) specific for Fc and anti-His antibody conjugated to SureLight®-Allophycocyanin (APC, PerkinElmer-AD0059H). After centrifugation, the plate was incubated at 25° C. for 60 min. before reading on a PHERAstar FS plate reader (665 nm/620 nm ratio). Final concentrations in the assay were […], 10 nM PD-L1, 1 nM europium anti-human IgG and 20 nM anti-His-Allophycocyanin. IC50 determination was performed by fitting the curve of percent control activity versus the log of the inhibitor concentration using the GraphPad Prism 5.0 software.

PD-1/PD-L1, sequence (Q9NZQ7 19-238): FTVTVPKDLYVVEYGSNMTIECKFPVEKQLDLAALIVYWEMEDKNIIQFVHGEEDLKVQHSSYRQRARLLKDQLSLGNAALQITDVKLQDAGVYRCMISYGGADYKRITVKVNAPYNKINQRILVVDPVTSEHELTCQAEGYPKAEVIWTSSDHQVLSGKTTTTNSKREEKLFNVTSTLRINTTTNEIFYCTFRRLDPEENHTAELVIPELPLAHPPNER

SMILES | IC50 [nM]
CC(C)N1CCc2c(nc(C(=O)Nc3cccc(-c4cccc(NC(=O)c5nc6c(n5C)CCN(CC[C@H]5CC[C@H](C(=O)O)CC5)C6)c4Cl)c3C#N)n2C)C1 [Compound 152, trans-4-(2-(2-((2-chloro-2′-cyano-3′-(5-isopropyl-1-methyl-4,5,6,7-tetrahydro-1H-imidazo[4,5-c]pyridine-2-carboxamido)-[1,1′-biphenyl]-3-yl)carbamoyl)-1-methyl-1,4,6,7-tetrahydro-5H-imidazo[4,5-c]pyridin-5-yl)ethyl)cyclohexane-1-carboxylic acid] | ≤ 10
Cn1c(C(=O)Nc2cccc(-c3cccc(NC(=O)c4nc5c(n4C)CCN(C4CCOCC4)C5)c3C#N)c2Cl)nc2c1CCN(CC[C@H]1CC[C@H](C(=O)O)CC1)C2 [Compound 153, trans-4-(2-(2-((2-chloro-2′-cyano-3′-(1-methyl-5-(tetrahydro-2H-pyran-4-yl)-4,5,6,7-tetrahydro-1H-imidazo[4,5-c]pyridine-2-carboxamido)-[1,1′-biphenyl]-3-yl)carbamoyl)-1-methyl-1,4,6,7-tetrahydro-5H-imidazo[4,5-c]pyridin-5-yl)ethyl)cyclohexane-1-carboxylic acid] | ≤ 10
CC(C)N1CCc2c(nc(C(=O)Nc3cccc(-c4cccc(NC(=O)c5nc6c(n5C)CCN(CC[C@H]5CC[C@H](C(=O)O)CC5)C6)c4C#N)c3Cl)n2C)C1 [Compound 155, trans-4-(2-(2-((2′-chloro-2-cyano-3′-(5-isopropyl-1-methyl-4,5,6,7-tetrahydro-1H-imidazo[4,5-c]pyridine-2-carboxamido)-[1,1′-biphenyl]-3-yl)carbamoyl)-1-methyl-1,4,6,7-tetrahydro-5H-imidazo[4,5-c]pyridin-5-yl)ethyl)cyclohexane-1-carboxylic acid] | ≤ 10

Results, then the molecule that gave them:

IC50 [nM] | SMILES
≤ 10 | CN1CCc2c(nc(C(=O)Nc3cccc(-c4cccc(NC(=O)c5nc6c(n5C)CCN(C[C@H]5CC[C@H](C(=O)O)CC5)C6)c4Cl)c3C#N)n2C)C1 [Compound 149, trans-4-((2-((2-chloro-2′-cyano-3′-(1,5-dimethyl-4,5,6,7-tetrahydro-1H-imidazo[4,5-c]pyridine-2-carboxamido)-[1,1′-biphenyl]-3-yl)carbamoyl)-1-methyl-1,4,6,7-tetrahydro-5H-imidazo[4,5-c]pyridin-5-yl)methyl)cyclohexane-1-carboxylic acid]
≤ 10 | CN1CCc2c(nc(C(=O)Nc3cccc(-c4cccc(NC(=O)c5nc6c(n5C)CCN(CC[C@H]5CC[C@H](C(=O)O)CC5)C6)c4Cl)c3C#N)n2C)C1 [Compound 150, trans-4-(2-(2-(2-chloro-2′-cyano-3′-(1,5-dimethyl-4,5,6,7-tetrahydro-1H-imidazo[4,5-c]pyridine-2-carboxamido)biphenyl-3-ylcarbamoyl)-1-methyl-6,7-dihydro-1H-imidazo[4,5-c]pyridin-5(4H)-yl)ethyl)cyclohexane-1-carboxylic acid]
≤ 10 | CCN1CCc2c(nc(C(=O)Nc3cccc(-c4cccc(NC(=O)c5nc6c(n5C)CCN(CC[C@H]5CC[C@H](C(=O)O)CC5)C6)c4Cl)c3C#N)n2C)C1 [Compound 151, trans-4-(2-(2-((2-chloro-2′-cyano-3′-(5-ethyl-1-methyl-4,5,6,7-tetrahydro-1H-imidazo[4,5-c]pyridine-2-carboxamido)-[1,1′-biphenyl]-3-yl)carbamoyl)-1-methyl-1,4,6,7-tetrahydro-5H-imidazo[4,5-c]pyridin-5-yl)ethyl)cyclohexane-1-carboxylic acid]
≤ 10 | CCN1CCc2c(nc(C(=O)Nc3cccc(-c4cccc(NC(=O)c5nc6c(n5C)CCN(CC[C@H]5CC[C@H](C(=O)O)CC5)C6)c4C#N)c3Cl)n2C)C1 [Compound 154, trans-4-(2-(2-((2′-chloro-2-cyano-3′-(5-ethyl-1-methyl-4,5,6,7-tetrahydro-1H-imidazo[4,5-c]pyridine-2-carboxamido)-[1,1′-biphenyl]-3-yl)carbamoyl)-1-methyl-1,4,6,7-tetrahydro-5H-imidazo[4,5-c]pyridin-5-yl)ethyl)cyclohexane-1-carboxylic acid]
